Relative viability data for 9 cell lines are collected here from the supplement of paper PMC10307832.

Holding throughout (assay): relative viability (nuclei count vs DMSO), 5 days (fraction); higher = more cells survive
Compound in the test “TPCA-1 + OSI-027”: C1=CC(=CC=C1C2=CC(=C(S2)NC(=O)N)C(=O)N)F [TPCA-1] + COc1cccc2cc(-c3nc([C@H]4CC[C@H](C(=O)O)CC4)n4ncnc(N)c34)[nH]c12 [OSI-027] (partner 0.5 µM)
The method in brief:
(§1)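 Lung cancer cell lines were pin-tool dosed in 1536-well plates on the day after seeding, with either a lone drug or a fixed anchor-drug dose plus five library-drug doses (not always all listed) in √10 steps. Nuclei were counted on 4× images after 5 days. Relative viability is the ratio of treated-well to vehicle-well nuclei counts, with each value a median of duplicate plates.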

Compound in test [1]: C[C@]12O[C@H](C[C@]1(O)CO)n1c3ccccc3c3c4c(c5c6ccccc6n2c5c31)CNC4=O [Lestaurtinib] + O=C(CCCCCCC(=O)Nc1ccccc1)NO [Vorinostat] (partner 1 µM)
In outline: as §1

Compound in test [2]: C[C@]12O[C@H](C[C@]1(O)CO)n1c3ccccc3c3c4c(c5c6ccccc6n2c5c31)CNC4=O [Lestaurtinib] + CS(=O)(=O)N1CCN(Cc2cc3nc(-c4cccc5[nH]ncc45)nc(N4CCOCC4)c3s2)CC1 [Pictilisib] (partner 1 µM)
In outline: as §1

Compound in test [3]: C1/C(=C\C2=CC=CS2)/C(=O)/C(=C/C3=CC=CS3)/C1 + Cc1cc(Nc2cc(N3CCN(C)CC3)nc(Sc3ccc(NC(=O)C4CC4)cc3)n2)n[nH]1 [Tozasertib] (partner 0.1 µM)
The method in brief: as §1

Turning to 201T, the relative viability with TPCA-1 + OSI-027 (first compound 0.04 µM) is 0.781; with TPCA-1 + OSI-027 (first compound 0.1265 µM), 0.751; in the test with TPCA-1 + OSI-027 (first compound 0.4 µM) it was 0.782; with TPCA-1 + OSI-027 (first compound 1.265 µM), 0.669; with TPCA-1 + OSI-027 (first compound 4 µM) it was 0.484; in test [1] (first compound 0.005 µM), 1.03. Further, the relative viability was determined as 1.12 in test [1] (first compound 0.01581 µM); 1.01 in test [1] (first compound 0.05 µM); 0.927 in test [1] (first compound 0.1581 µM); 0.771 in test [1] (first compound 0.5 µM); 0.677 in test [2] (first compound 0.005 µM); 0.691 in test [2] (first compound 0.01581 µM). Besides, the relative viability in test [2] (first compound 0.05 µM) is 0.64; in test [2] (first compound 0.1581 µM), 0.601; in test [2] (first compound 0.5 µM), 0.533; in test [3] (first compound 0.2 µM), 0.959; in test [3] (first compound 0.6325 µM), 0.968; in test [3] (first compound 2 µM), 1. For the same cell line, the relative viability in test [3] (first compound 6.325 µM) was determined as 0.897; in test [3] (first compound 20 µM), 0.911.
For A549, the relative viability in test [2] (first compound 0.005 µM) is 0.61; in test [2] (first compound 0.01581 µM), 0.588; in test [2] (first compound 0.05 µM), 0.184; in test [2] (first compound 0.1581 µM), 0.251; in test [2] (first compound 0.5 µM), 0.0856.
Take A-427: the relative viability came out at 0.528 in the test with TPCA-1 + OSI-027 (first compound 0.04 µM); 0.359 with TPCA-1 + OSI-027 (first compound 0.1265 µM); 0.546 with TPCA-1 + OSI-027 (first compound 0.4 µM); 0.332 with TPCA-1 + OSI-027 (first compound 1.265 µM); 0.195 with TPCA-1 + OSI-027 (first compound 4 µM); 0.778 in test [1] (first compound 0.005 µM). Also, the relative viability in test [1] (first compound 0.01581 µM) was found to be 0.995; in test [1] (first compound 0.05 µM), 0.766; in test [1] (first compound 0.1581 µM), 0.447; in test [1] (first compound 0.5 µM), 0.208; in test [2] (first compound 0.005 µM), 0.769; in test [2] (first compound 0.01581 µM), 0.668. Moreover, the relative viability worked out at 0.461 in test [2] (first compound 0.05 µM); 0.239 in test [2] (first compound 0.1581 µM); 0.101 in test [2] (first compound 0.5 µM); 0.185 in test [3] (first compound 0.2 µM); 0.22 in test [3] (first compound 0.6325 µM); 0.248 in test [3] (first compound 2 µM). For the same cell line, the relative viability in test [3] (first compound 6.325 µM) came out at 0.176; in test [3] (first compound 20 µM) it was 0.216.
Regarding ABC-1, the relative viability came to 0.592 with TPCA-1 + OSI-027 (first compound 0.04 µM); 0.515 with TPCA-1 + OSI-027 (first compound 0.1265 µM); 0.62 in the test with TPCA-1 + OSI-027 (first compound 0.4 µM); 0.475 with TPCA-1 + OSI-027 (first compound 1.265 µM); 0.293 with TPCA-1 + OSI-027 (first compound 4 µM); 1.02 in test [1] (first compound 0.005 µM). For the same cell line, the relative viability came to 1.2 in test [1] (first compound 0.01581 µM); 1.03 in test [1] (first compound 0.05 µM); 0.887 in test [1] (first compound 0.1581 µM); 0.329 in test [1] (first compound 0.5 µM); 0.676 in test [2] (first compound 0.005 µM); 0.747 in test [2] (first compound 0.01581 µM). Moreover, the relative viability in test [2] (first compound 0.05 µM) was 0.4; in test [2] (first compound 0.1581 µM) it was 0.596; in test [2] (first compound 0.5 µM) it was 0.226; in test [3] (first compound 0.2 µM), 0.182; in test [3] (first compound 0.6325 µM), 0.17; in test [3] (first compound 2 µM) it was 0.195. Also, the relative viability is 0.195 in test [3] (first compound 6.325 µM) and 0.218 in test [3] (first compound 20 µM).
In the case of BEN, the relative viability in the test with TPCA-1 + OSI-027 (first compound 0.04 µM) worked out at 0.261; with TPCA-1 + OSI-027 (first compound 0.1265 µM) it was 0.269; in the test with TPCA-1 + OSI-027 (first compound 0.4 µM), 0.303; in the test with TPCA-1 + OSI-027 (first compound 1.265 µM), 0.346; with TPCA-1 + OSI-027 (first compound 4 µM), 0.242; in test [1] (first compound 0.005 µM) it was 0.631. The relative viability in test [1] (first compound 0.01581 µM) was found to be 0.704; in test [1] (first compound 0.05 µM) it was 0.59; in test [1] (first compound 0.1581 µM) it was 0.477; in test [1] (first compound 0.5 µM) it was 0.309; in test [2] (first compound 0.005 µM) it was 0.641; in test [2] (first compound 0.01581 µM) it was 0.693. The relative viability is 0.452 in test [2] (first compound 0.05 µM); 0.481 in test [2] (first compound 0.1581 µM); 0.281 in test [2] (first compound 0.5 µM); 0.474 in test [3] (first compound 0.2 µM); 0.506 in test [3] (first compound 0.6325 µM); 0.506 in test [3] (first compound 2 µM). In addition, the figures for the relative viability in test [3] (first compound 6.325 µM) and in test [3] (first compound 20 µM) were 0.52 and 0.6, respectively.
For CAL-12T, the relative viability was determined as 0.678 with TPCA-1 + OSI-027 (first compound 0.04 µM); 0.614 with TPCA-1 + OSI-027 (first compound 0.1265 µM); 0.664 in the test with TPCA-1 + OSI-027 (first compound 0.4 µM); 0.523 with TPCA-1 + OSI-027 (first compound 1.265 µM); 0.185 with TPCA-1 + OSI-027 (first compound 4 µM); 0.793 in test [1] (first compound 0.005 µM). Besides, the relative viability in test [1] (first compound 0.01581 µM) was found to be 0.881; in test [1] (first compound 0.05 µM), 0.622; in test [1] (first compound 0.1581 µM), 0.484; in test [1] (first compound 0.5 µM), 0.241; in test [2] (first compound 0.005 µM), 0.392; in test [2] (first compound 0.01581 µM), 0.716. Moreover, the relative viability in test [2] (first compound 0.05 µM) is 0.388; in test [2] (first compound 0.1581 µM), 0.413; in test [2] (first compound 0.5 µM) it was 0.292; in test [3] (first compound 0.2 µM), 0.334; in test [3] (first compound 0.6325 µM) it was 0.32; in test [3] (first compound 2 µM), 0.356. In addition, the relative viability came out at 0.256 in test [3] (first compound 6.325 µM) and 0.309 in test [3] (first compound 20 µM).
Regarding COR-L23, the relative viability worked out at 0.749 with TPCA-1 + OSI-027 (first compound 0.04 µM); 0.706 with TPCA-1 + OSI-027 (first compound 0.1265 µM); 0.823 with TPCA-1 + OSI-027 (first compound 0.4 µM); 0.683 in the test with TPCA-1 + OSI-027 (first compound 1.265 µM); 0.286 in the test with TPCA-1 + OSI-027 (first compound 4 µM); 0.618 in test [1] (first compound 0.005 µM). For the same cell line, the relative viability in test [1] (first compound 0.01581 µM) was 0.433; in test [1] (first compound 0.05 µM) it was 0.294; in test [1] (first compound 0.1581 µM) it was 0.212; in test [1] (first compound 0.5 µM) it was 0.115; in test [2] (first compound 0.005 µM), 0.688; in test [2] (first compound 0.01581 µM), 0.723. In addition, the relative viability was found to be 0.332 in test [2] (first compound 0.1581 µM); 0.208 in test [2] (first compound 0.5 µM); 0.223 in test [3] (first compound 0.2 µM); 0.203 in test [3] (first compound 0.6325 µM); 0.197 in test [3] (first compound 2 µM); 0.185 in test [3] (first compound 6.325 µM). For the same cell line, in test [3] (first compound 20 µM), the relative viability was 0.193.
On to COR-L 105, for which the relative viability with TPCA-1 + OSI-027 (first compound 0.04 µM) turned out to be 0.646; with TPCA-1 + OSI-027 (first compound 0.1265 µM), 0.602; in the test with TPCA-1 + OSI-027 (first compound 0.4 µM), 0.707; with TPCA-1 + OSI-027 (first compound 1.265 µM), 0.649; in the test with TPCA-1 + OSI-027 (first compound 4 µM), 0.396; in test [1] (first compound 0.005 µM), 0.949. The relative viability in test [1] (first compound 0.01581 µM) was 0.676; in test [1] (first compound 0.05 µM) it was 0.678; in test [1] (first compound 0.1581 µM), 0.445; in test [1] (first compound 0.5 µM), 0.402; in test [2] (first compound 0.005 µM), 0.488; in test [2] (first compound 0.01581 µM), 0.405. In addition, the relative viability in test [2] (first compound 0.05 µM) was 0.288; in test [2] (first compound 0.1581 µM), 0.263; in test [2] (first compound 0.5 µM), 0.212; in test [3] (first compound 0.2 µM), 0.337; in test [3] (first compound 0.6325 µM), 0.33; in test [3] (first compound 2 µM) it was 0.316. In addition, the relative viability in test [3] (first compound 20 µM) turned out to be 0.407.
As for Calu-6, the relative viability in test [2] (first compound 0.005 µM) was determined as 0.875; in test [2] (first compound 0.01581 µM) it was 0.751; in test [2] (first compound 0.05 µM), 0.357; in test [2] (first compound 0.1581 µM), 0.308; in test [2] (first compound 0.5 µM) it was 0.142.
